Consider 2 compounds from article PMC9944867, “Mechanistic in vitro studies indicate that the clinical drug–drug interactions between protease inhibitors and rosuvastatin are driven by inhibition of intestinal BCRP and hepatic OATP1B1 with minimal contribution from OATP1B3, NTCP and OAT3” (Pharmacology Research & Perspectives, 2023).

Structures are written as SMILES. Where “and” joins values, the source holds several entries; their conditions need not be identical. Identical values can stand only once. Like-named read-outs stand apart in the source and are kept apart here.

Experiment [1] concerns the target T1, BCRP (Homo sapiens, UniProt Q9UNQ0).
T1 sequence (Q9UNQ0 1-655): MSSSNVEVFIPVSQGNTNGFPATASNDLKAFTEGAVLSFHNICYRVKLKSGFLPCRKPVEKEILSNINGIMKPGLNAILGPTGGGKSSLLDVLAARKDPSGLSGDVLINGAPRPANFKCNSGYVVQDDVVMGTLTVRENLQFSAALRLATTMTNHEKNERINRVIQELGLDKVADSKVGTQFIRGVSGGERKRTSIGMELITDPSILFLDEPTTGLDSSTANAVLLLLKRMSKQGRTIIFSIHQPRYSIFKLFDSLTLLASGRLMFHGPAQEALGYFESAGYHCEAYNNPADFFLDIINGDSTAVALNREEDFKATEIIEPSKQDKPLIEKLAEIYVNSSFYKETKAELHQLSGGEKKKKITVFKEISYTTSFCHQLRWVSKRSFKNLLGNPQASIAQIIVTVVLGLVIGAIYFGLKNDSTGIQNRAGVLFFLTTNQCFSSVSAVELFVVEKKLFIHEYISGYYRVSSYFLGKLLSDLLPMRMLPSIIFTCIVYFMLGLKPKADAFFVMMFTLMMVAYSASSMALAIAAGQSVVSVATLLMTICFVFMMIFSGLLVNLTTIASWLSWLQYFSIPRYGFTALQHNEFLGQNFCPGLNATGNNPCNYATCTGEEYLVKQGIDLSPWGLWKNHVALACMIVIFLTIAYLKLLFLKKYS
In words: Caco-2 unidirectional (B-A) BCRP inhibition assay, [3H]-estrone 3-sulfate transport (IC50 determination). As for the experimental part:
The methodology used was adapted from the previously validated Caco‐2 unidirectional (basolateral to apical; B‐A) BCRP inhibition assay.[13]
The BCRP inhibition experiments were performed between day 18 to 22 post‐seeding. […] After pre‐incubation, transport buffer was removed and the appropriate donor solutions were added to the basolateral donor compartment. […] Receiver solutions (final DMSO concentration of ≤1 % v/v) in transport buffer containing either the corresponding concentration of test inhibitor or DMSO (vehicle control), and the fluorescent cell monolayer integrity marker lucifer yellow (100 μM), were added to the apical compartments (total volume = 90 μL). Incubations were conducted in triplicate wells per assay condition in a heated incubator at 37°C for 90 min. Following the incubation, the amount (pmol) of [^3H]‐estrone 3‐sulfate appearing in the receiver compartment was determined by sampling (50 μL) into a white walled clear bottomed multiwell plate, to which scintillation fluid (200 μL) was added, and then samples counted on a Microbeta2 liquid scintillation counter (PerkinElmer). The quantified amount (derived from disintegrations per minute; DPM) of [^3H]‐estrone 3‐sulfate was subsequently converted to concentration (pmol/mL) and used to calculate apparent permeability (Papp), as described previously.[18]
(In general: Caco-2 monolayers are a common model of the intestinal barrier.)

The target in experiment [2] is T2, human OATP1B1 (SLCO1B1) (Homo sapiens, UniProt Q9Y6L6).
T2 sequence (Q9Y6L6 1-691): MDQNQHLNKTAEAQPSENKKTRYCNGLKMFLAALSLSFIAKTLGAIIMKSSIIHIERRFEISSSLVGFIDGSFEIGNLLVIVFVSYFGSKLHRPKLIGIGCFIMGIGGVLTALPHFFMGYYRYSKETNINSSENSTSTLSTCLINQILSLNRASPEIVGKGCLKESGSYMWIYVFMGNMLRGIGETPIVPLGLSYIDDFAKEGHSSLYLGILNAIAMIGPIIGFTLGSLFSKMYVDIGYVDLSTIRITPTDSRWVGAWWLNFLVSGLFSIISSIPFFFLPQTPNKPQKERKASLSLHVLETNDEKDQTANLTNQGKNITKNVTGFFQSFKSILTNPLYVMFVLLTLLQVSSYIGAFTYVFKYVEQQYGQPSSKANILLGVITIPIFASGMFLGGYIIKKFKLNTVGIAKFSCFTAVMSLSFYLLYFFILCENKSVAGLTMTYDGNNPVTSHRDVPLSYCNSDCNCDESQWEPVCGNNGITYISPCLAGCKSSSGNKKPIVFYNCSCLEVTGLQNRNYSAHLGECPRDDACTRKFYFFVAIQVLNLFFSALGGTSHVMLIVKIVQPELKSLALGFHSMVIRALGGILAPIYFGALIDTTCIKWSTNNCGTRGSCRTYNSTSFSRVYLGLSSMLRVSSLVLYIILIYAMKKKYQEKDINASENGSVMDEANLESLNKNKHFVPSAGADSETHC
In words: OATP1B1 inhibition in transporter-expressing HEK293 cells, [3H]-estradiol 17β-D-glucuronide uptake (IC50 determination). Particulars: OATP1B1-mediated transport of [3H]-estradiol 17β-D-glucuronide (0.02 μM), HEK293. As for the experimental part: OATP1B1, OATP1B3, NTCP and vector control cell lines were cultured and subsequent transporter assays conducted as described above using the same transporter‐specific probe substrates and incubation times. For OATP1B1, the probe substrate was [^3H]‐estradiol 17β‐D‐glucuronide (0.02 μM) incubated for 2 min, with rifamycin SV (100 μM) as positive control inhibitor. For IC50 determinations, the only difference to the method performed above was that the 15‐min pre‐incubation step contained a range of six concentrations of protease inhibitor drug, and subsequent incubations were conducted with the same six concentration levels of drug rather than with a single concentration.

The target of experiment [3] is T3, human NTCP (SLC10A1) (Homo sapiens, UniProt Q14973).
T3 construct: host or cells: HEK293 TransportoCells
T3 sequence (Q14973 1-349): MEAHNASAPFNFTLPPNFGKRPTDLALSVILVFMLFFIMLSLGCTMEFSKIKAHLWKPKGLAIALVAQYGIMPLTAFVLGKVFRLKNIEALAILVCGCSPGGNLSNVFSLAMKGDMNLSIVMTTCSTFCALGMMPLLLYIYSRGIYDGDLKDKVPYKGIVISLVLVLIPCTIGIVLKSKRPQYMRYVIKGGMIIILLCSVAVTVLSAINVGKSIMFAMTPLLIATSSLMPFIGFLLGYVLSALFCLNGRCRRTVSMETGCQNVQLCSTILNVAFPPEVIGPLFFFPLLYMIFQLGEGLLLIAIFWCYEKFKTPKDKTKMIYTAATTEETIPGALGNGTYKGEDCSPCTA
In words: NTCP inhibition in transporter-expressing HEK293 cells, [3H]-taurocholic acid uptake (IC50 determination). It is filed as cell-based. The following applies: for IC50: NTCP-mediated transport of [3H]-taurocholic acid (1 μM), HEK293.

Experiment [4] deals with T3, human NTCP (SLC10A1). In words: NTCP single concentration inhibition screen in HEK293 cells. The format is cell-based. The following applies: ≥10x [Iin max u]: atazanavir 50 μM, darunavir 15 μM, lopinavir 5 μM, ritonavir 0.3 μM; [3H]-taurocholic acid 1 μM.
The test system of experiment [5] is OATP1B3. Also on record: method as in Vildhede et al.[33]. Particulars: ref Vildhede et al.[33], cited from earlier work.
Experiment [6] concerns NTCP. More on the design: method as in Vildhede et al.[33]. The following applies: ref Vildhede et al.[33], cited from earlier work.
The subject of experiment [7] is OAT3. Also on record: method as in Yoshida et al.[32]. The following applies: up to 10 μM; ref Yoshida et al.[32]; cited from earlier work.
Where [8] appears, read: IC50 mean (BCRP), BCRP-mediated B-A transport of [3H]-estrone 3-sulfate (1 μM), Caco-2, mean (±SD) of occasions, IC50 equates to Ki.
Setting [9] is: IC50, determined values from different occasions (OATP1B1), single occasion.
Setting [10] is: IC50 mean (OATP1B1), mean (±SD) of three occasions.
Where [11] appears, read: mean (±SD) of three occasions, read-out: IC50 mean (NTCP).
The mark [12] stands for this setting: single occasion, read-out: IC50, determined values from different occasions (NTCP).

As a reminder, the IC50 is the concentration at which inhibition is half-maximal. On to `Cc1cccc(C)c1OCC(=O)N[C@@H](Cc1ccccc1)[C@@H](O)C[C@H](Cc1ccccc1)NC(=O)[C@H](C(C)C)N1CCCNC1=O` [lopinavir], for which the 50% inhibitory concentration (IC50) was 12.7 µM and 18.3 µM and 15.6 µM in experiment [1]; 15.5 µM in experiment [1] (setting [8]); 291 nM and 207 nM and 162 nM in experiment [2] (setting [9]); 220 nM in experiment [2] (setting [10]); 20.3 µM in experiment [3] (setting [11]); 22.6 µM and 18.4 µM and 19.9 µM in experiment [3] (setting [12]). The “Inhibition of NTCP-mediated probe substrate transport, single concentration screen” value in experiment [4] was “produced inhibition”. Further, the “Inhibition of OATP1B3, published” value in experiment [5] (tested up to 10 μM) was “no inhibition”. For the same compound, the “Inhibition of NTCP, published” value in experiment [6] (tested up to 10 μM) is reported as “no inhibition”. Further, the “Inhibition of OAT3, published” value in experiment [7] is on record as “no inhibition”.

On to `COC(=O)N[C@H](C(=O)N[C@@H](Cc1ccccc1)[C@@H](O)CN(Cc1ccc(-c2ccccn2)cc1)NC(=O)[C@@H](NC(=O)OC)C(C)(C)C)C(C)(C)C` [atazanavir], for which the half-maximal inhibitory concentration (IC50) in experiment [1] was 49.8 µM and 30.3 µM and 51.5 µM and 37.1 µM; in experiment [1] (setting [8]) it was 42.2 µM; in experiment [2] (setting [9]), 583 nM and 690 nM; in experiment [2] (setting [10]), 734 nM; in experiment [3] (setting [11]) it was 65.6 µM; in experiment [3] (setting [12]), 55.9 µM and 63.8 µM and 77.1 µM. Also, in experiment [3] (FDA static equation R = 1 + [Iin max u]/Ki, potential for interaction if ≥1.1), the “R value (NTCP)” value amounted to 1.07. Further, the “Inhibition of NTCP-mediated probe substrate transport, single concentration screen” value in experiment [4] is listed as “produced inhibition”. For the same compound, in experiment [5] (probe substrate atorvastatin), the “Published IC50/Ki (OATP1B3)” value is 7.3 (atorvastatin) μM. Also, the “Inhibition of NTCP, published” value in experiment [6] (tested up to 40 μM) is reported as “no inhibition”. For the same compound, the “Inhibition of OAT3, published” value in experiment [7] is “no inhibition”.
